Laboratory results taken from patent US20110118118A1, “HERBICIDALLY ACTIVE PHENYL-SUBSTITUTED PYRIDAZINONES” (BAYER CROPSCIENCE AG, priority 2009, published 2011).

Tests used:
Experiment in all cases: Post-emergence herbicidal action against harmful plants
Format in all cases: in vivo
Settings in all cases: application rate 320 g/ha, rated visually after about 3 weeks vs untreated controls
Abutilon theophrasti = test system: Abutilon theophrasti
Experimental: (§1) 2. Post-Emergence Herbicidal Action Against Harmful Plants Seeds of monocotyledonous and dicotyledonous weed and crop plants are placed in sandy loam in wood-fiber pots, covered with soil and cultivated in a greenhouse under good growth conditions. 2 to 3 weeks after sowing, the test plants are treated at the one-leaf stage. The compounds according to the invention, formulated in the form of wettable powders (WP) or as emulsion concentrates (EC), are then sprayed as aqueous suspension or emulsion at a water application rate of 600 to 800 l/ha (converted) with the addition of 0.2% of wetting agent onto the green parts of the plants. After the test plants have been kept in the greenhouse under optimum growth conditions for about 3 weeks, the activity of the preparations is rated visually in comparison to untreated controls (herbicidal activity in percent (%): 100% activity=the plants have died, 0% activity=like control plants). Here, for example, the compounds Nos. I-1-c-2 and I-1-c-3 (Table 33 in each case) each show, at an application rate of 320 g/ha, an activity of at least 90% against Alopecurus myosuroides, Amaranthus retroflexus, Matricaria inodora, Pharbitis purpureum and Viola tricolor.

Fallopia convolvulus = test system: Fallopia convolvulus
Experimental: as §1

Lolium multiflorum = test system: Lolium multiflorum
Experimental: as §1

Veronica persica = test system: Veronica persica
Experimental: as §1

CCc1cc(Cl)cc(Br)c1-c1c(O)c(C)nn(C)c1=O [I-1-a-3]
100%: herbicidal activity in percent against Abutilon theophrasti (Abutilon theophrasti) | herbicidal activity in percent against Fallopia convolvulus (Fallopia convolvulus) | herbicidal activity in percent against Lolium multiflorum (Lolium multiflorum) | herbicidal activity in percent against Veronica persica (Veronica persica)

CCc1cc(Cl)cc(Br)c1-c1c(OC(=O)C(C)C)c(C)nn(C)c1=O [I-1-b-2]
100%: herbicidal activity in percent against Abutilon theophrasti (Abutilon theophrasti) | herbicidal activity in percent against Fallopia convolvulus (Fallopia convolvulus) | herbicidal activity in percent against Lolium multiflorum (Lolium multiflorum) | herbicidal activity in percent against Veronica persica (Veronica persica)
